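Exposure lasted 48 hours, with cells grown in 96-well plates and compounds tested at five concentrations. GI50: concentration for 50% inhibition of growth.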 Calls of active or inactive are those of the source. Rule as the data show it: active = GI50 up to about 1.1 µM and inactive = higher.
Tests used:
Assay in all cases: NCI anticancer screen, dose series, 48 h
SF-295 = test system: SF-295
M14 = test system: M14
HOP-92 = test system: HOP-92
DU-145 = test system: DU-145
MDA-MB-231 = test system: MDA-MB-231
SF-539 = test system: SF-539
SK-MEL-2 = test system: SK-MEL-2
A498 = test system: A498
HL-60 = test system: HL-60
HT-29 = test system: HT-29
CCRF-CEM = test system: CCRF-CEM
K562 = test system: K562
MDA-N = test system: MDA-N
UACC-257 = test system: UACC-257
TK-10 = test system: TK-10
786-0 = test system: 786-0
UO-31 = test system: UO-31
SF-268 = test system: SF-268
PC-3 = test system: PC-3
MCF7 = test system: MCF7
SK-MEL-28 = test system: SK-MEL-28
HCT-116 = test system: HCT-116
SW-620 = test system: SW-620
NCI-H23 = test system: NCI-H23
NCI-H460 = test system: NCI-H460
IGROV-1 = test system: IGROV-1
BT-549 = test system: BT-549
U-251 = test system: U-251
OVCAR-4 = test system: OVCAR-4
SK-MEL-5 = test system: SK-MEL-5
Malme-3M = test system: Malme-3M
SNB-75 = test system: SNB-75
NCI-H226 = test system: NCI-H226
RXF 393 = test system: RXF 393
SN12C = test system: SN12C
UACC-62 = test system: UACC-62
OVCAR-3 = test system: OVCAR-3
MOLT-4 = test system: MOLT-4
KM12 = test system: KM12
NCI/ADR-RES = test system: NCI/ADR-RES
T47D = test system: T47D
NCI-H522 = test system: NCI-H522
COLO 205 = test system: COLO 205
MDA-MB-435 = test system: MDA-MB-435
OVCAR-5 = test system: OVCAR-5
CAKI-1 = test system: CAKI-1
HCC 2998 = test system: HCC 2998
HCT-15 = test system: HCT-15
OVCAR-8 = test system: OVCAR-8
SNB-19 = test system: SNB-19
A549 = test system: A549
RPMI-8226 = test system: RPMI-8226
ACHN = test system: ACHN
SR = test system: SR
HOP-62 = test system: HOP-62
EKVX = test system: EKVX
SK-OV-3 = test system: SK-OV-3
LOX IMVI = test system: LOX IMVI

Measured: GI50

OC[C@H]1CCCC1O (some centres undefined)
inactive: SF-295 > 100 µM | M14 > 100 µM | HOP-92 > 100 µM | DU-145 > 100 µM | MDA-MB-231 > 100 µM | SF-539 > 100 µM | SK-MEL-2 > 100 µM | A498 > 100 µM | HL-60 > 100 µM | HT-29 > 100 µM | CCRF-CEM > 100 µM | K562 > 100 µM | MDA-N > 100 µM | UACC-257 > 100 µM | TK-10 > 100 µM | 786-0 > 100 µM | UO-31 > 100 µM | SF-268 > 100 µM | PC-3 > 100 µM | MCF7 > 100 µM | SK-MEL-28 > 100 µM | HCT-116 > 100 µM | SW-620 > 100 µM | NCI-H23 > 100 µM | NCI-H460 > 100 µM | IGROV-1 > 100 µM | BT-549 > 100 µM | U-251 > 100 µM | OVCAR-4 > 100 µM | SK-MEL-5 > 100 µM | Malme-3M > 100 µM | SNB-75 73.1 µM | NCI-H226 > 100 µM | RXF 393 > 100 µM | SN12C > 100 µM | UACC-62 > 100 µM | OVCAR-3 > 100 µM | MOLT-4 > 100 µM | KM12 > 100 µM | NCI/ADR-RES > 100 µM | T47D > 100 µM | NCI-H522 > 100 µM | COLO 205 > 100 µM | MDA-MB-435 > 100 µM | OVCAR-5 > 100 µM | CAKI-1 > 100 µM | HCC 2998 > 100 µM | OVCAR-8 > 100 µM | SNB-19 > 100 µM | A549 > 100 µM | RPMI-8226 > 100 µM | ACHN > 100 µM | SR > 100 µM
> 100 µM: HCT-15

CNC(=O)Oc1ccc(-c2cn3cc(OC(=O)NC)ccc3n2)cc1
inactive: SF-295 64.6 µM | M14 41.7 µM | HOP-92 > 100 µM | DU-145 68.9 µM | MDA-MB-231 > 100 µM | SF-539 27.6 µM | SK-MEL-2 > 100 µM | A498 66.4 µM | HOP-62 80.4 µM | HT-29 41.5 µM | CCRF-CEM 17.9 µM | K562 22.6 µM | MDA-N 32.8 µM | UACC-257 > 100 µM | TK-10 91.6 µM | 786-0 26.7 µM | UO-31 26.5 µM | SF-268 19.3 µM | PC-3 49.9 µM | MCF7 32.4 µM | SK-MEL-28 92.7 µM | HCT-116 33.1 µM | SW-620 35.1 µM | NCI-H23 87.3 µM | NCI-H460 39.4 µM | IGROV-1 54 µM | BT-549 > 100 µM | U-251 36.9 µM | OVCAR-4 51.1 µM | SK-MEL-5 26.7 µM | SNB-75 62.4 µM | NCI-H226 > 100 µM | RXF 393 60 µM | SN12C 42.8 µM | UACC-62 28.4 µM | OVCAR-3 67.8 µM | MOLT-4 20.5 µM | KM12 44 µM | EKVX 96.4 µM | NCI/ADR-RES 79.1 µM | T47D 31.3 µM | SK-OV-3 > 100 µM | COLO 205 41.4 µM | MDA-MB-435 31.7 µM | OVCAR-5 > 100 µM | LOX IMVI 34.3 µM | CAKI-1 34.1 µM | HCC 2998 49.3 µM | OVCAR-8 49.9 µM | SNB-19 43.3 µM | A549 44.1 µM | RPMI-8226 19.8 µM | ACHN 29 µM | SR 21 µM
36.1 µM: HCT-15

Source: ChEMBL document CHEMBL1201862, “PubChem BioAssay data set” (2004)
